# Read-outs that look alike come from different tables or passages of the source.
# Test system: human Ewing's sarcoma SK-ES-1
# Assay type: in vivo
# Set-up: Tumor volume changes from baseline: Median (nMad): unit not given here
# Description: This efficacy may be quantified, for example, as changes in tumor volume for each treated (T) and control (C) group, which are calculated for each animal and each day by subtracting the tumor volume on the day of first treatment (staging day) from the tumor volume on the specified observation day. This allows calculating the tumor growth inhibition: ΔT/ΔC=(median delta T/median delta C)×100. Individual tumor volume changes from baseline are thereafter analyzed by a non-parametric two-way ANOVA-TYPE (with factors: group and repeated days) followed by a post-hoc contrasts analysis, with Bonferroni-Holm adjustment for multiplicity, comparing all treated groups to the control group. […] A probability less than 5% (p<0.05) was considered as significant.
# Based on the National Cancer Institute (NCl) standards, a ΔT/ΔC≦40% is the minimal level required to declare activity.
# The tumor doubling time (in days; Td) was estimated from the plot of the log linear growth of the control group tumors in exponential growth (100 to 1000 mm^3 range) [T. H. Corbett et al., Cancer, 40: 2660-2680 (1977); F. M. Schabel et al., Cancer Drug Development, Part B, Methods in Cancer Research, 17: 3-51, New York, Academic Press Inc. (1979)].
# This efficacy may also be quantified by the number of tumor regressions observed after therapy. Individual mice reporting a tumor volume ≦50% of the Day 0 measurement for two consecutive measurements over a seven day period were considered partial responders (PR). Individual mice lacking palpable tumors (<4×4 mm^2 for two consecutive measurements over a seven day period) were classified as complete responders (CR); a CR that persisted until study completion was considered a tumor-free survivor (TFS).
# The efficacy of cabazitaxel in comparison with docetaxel on pediatric solid tumors was determined experimentally in the following manner:
# The animals subjected to the experiment are subcutaneously grafted unilaterally with approximately 30 mg of a tumor fragment on day 0. The animals are implanted with a human tumor xenografted in immunocompromized mice. Several days post tumor implantation, mice are randomized according to their body weight to the different groups of treatments and controls. The animals are observed every day. The different animal groups are weighed daily during treatment until the maximum weight loss is reached and subsequent full weight recovery has occurred. The groups are then weighed once or twice a week until the end of the trial.
# The tumors are measured 1 to 5 times a week, depending on the tumor doubling time, until the tumor reaches approximately 1,000 mm^3, or until the animal dies (if this occurs before the tumor reaches 1,000 mm^3). The animals are necropsied immediately after euthanasia or death.
# The selected tumor model was a human Ewing's sarcoma SK-ES-1, xenografted in SCID mice [Fogh J. New York: Plenum Press, 1975].
# Cabazitaxel and docetaxel were weighed for each treatment and dissolved in ethanol. Treatment solutions were prepared first by mixing 1 volume of ethanolic stock solution and 1 volume of polysorbate 80, then by adding 18 volumes of glucose 5% in water.
# The Td in days was estimated from the plot of the log linear growth of the control group tumors in exponential growth (100 to 1,000 mm^3 range) and the number of tumor regressions observed after therapy.
# The following end points have been used: • Toxicity was declared at dosages inducing ≧20% body weight loss or ≧10% drug death; • Relative tumor growth inhibition was determined on day 22 post tumor implantation when the median tumor size in the control group was 456 mm^3; • Antitumor efficacy was determined by calculating the ΔT/ΔC value in percent, according to the above-mentioned formula; • Tumor regressions (as explained above); • Statistical analysis performed (as explained above).
# [1] = 3.5 mg/kg per injection (total 7.0) IV days 15; 19
# [2] = 5.6 mg/kg per injection (total 11.2) IV days 15; 19
# [3] = 5.6 mg/kg per injection (total 11.2) IV days 15; 19; listed as CABAZITAXEL
# [4] = 9.0 mg/kg per injection (total 18) IV days 15; 19
# [5] = 9.0 mg/kg per injection (total 18) IV days 15; 19; listed as CABAZITAXEL
# [6] = 14.5 mg/kg per injection (total 29) IV days 15; 19
# [7] = 14.5 mg/kg per injection (total 29) IV days 15; 19; listed as CABAZITAXEL
structure (smiles),measurement,setting,value
"CO[C@H]1C(=O)[C@]2(C)[C@@H](OC)C[C@H]3OC[C@@]3(OC(C)=O)[C@H]2[C@H](OC(=O)c2ccccc2)[C@]2(O)C[C@H](OC(=O)[C@H](O)[C@@H](NC(=O)OC(C)(C)C)c3ccccc3)C(C)=C1C2(C)C [Cabazitaxel, 4α-acetoxy-2α-benzoyloxy-5β,20-epoxy-1β-hydroxy-7β,10β-dimethoxy-9-oxo-11-taxen-13α-yl (2R,3S)-3-tert-butoxycarbonyl-amino-2-hydroxy-3-phenylpropionate]",Average body weight change in % per mouse at nadir,[1],−4.4%
same,Biological interpretation,[1],active
same,Drug death,[1],0/7
same,Regressions Complete,[1],0/7
same,Regressions Partial,[1],0/7
same,Tumor free survivors at day 120,[1],0/7
same,day of nadir,[1],16 days
same,ΔT/ΔC in % (day 22),[1],22%
same,Biological interpretation,3.5 mg/kg per injection (total 7.0) IV days 15; 19; listed as CABAZITAXEL,Active
same,Tumor volume changes from baseline: Median (nMad),"3.5 mg/kg, day 19",32
same,Tumor volume changes from baseline: Median (nMad),"3.5 mg/kg, day 22",41
same,Tumor volume changes from baseline: Median (nMad),"3.5 mg/kg, day 25",180
same,Tumor volume changes from baseline: Median (nMad),"3.5 mg/kg, day 28",499
same,Tumor volume changes from baseline: Median (nMad),3.5 mg/kg; day 19,32 (207.6)
same,Tumor volume changes from baseline: Median (nMad),3.5 mg/kg; day 22,41 (108.2)
same,Tumor volume changes from baseline: Median (nMad),3.5 mg/kg; day 25,180 (100.8)
same,Tumor volume changes from baseline: Median (nMad),3.5 mg/kg; day 28,499 (324.7)
same,Average body weight change in % per mouse at nadir,[2],−4.2%
same,Biological interpretation,[2],highly active
same,Drug death,[2],0/7
same,Regressions Complete,[2],0/7
same,Regressions Partial,[2],7/7
same,Tumor free survivors at day 120,[2],0/7
same,day of nadir,[2],16 days
same,Biological interpretation,[3],Highly Active
same,ΔT/ΔC in % (day 22),[3],<0%
same,PR,5.6 mg/kg per injection IV days 15; 19,100%
same,Tumor volume changes from baseline: Median (nMad),"5.6 mg/kg, day 19",−31
same,Tumor volume changes from baseline: Median (nMad),"5.6 mg/kg, day 22",−126
same,Tumor volume changes from baseline: Median (nMad),"5.6 mg/kg, day 25",−157
same,Tumor volume changes from baseline: Median (nMad),"5.6 mg/kg, day 28",−157
same,Tumor volume changes from baseline: Median (nMad),5.6 mg/kg; day 19,−31 (87.5)
same,Tumor volume changes from baseline: Median (nMad),5.6 mg/kg; day 22,−126 (86)
same,Tumor volume changes from baseline: Median (nMad),5.6 mg/kg; day 25,−157 (81.5)
same,Tumor volume changes from baseline: Median (nMad),5.6 mg/kg; day 28,−157 (81.5)
same,Tumor volume changes from baseline: Median (nMad),5.6 mg/kg; day 32,−128 (112.7)
same,Tumor volume changes from baseline: Median (nMad),5.6 mg/kg; day 35,−157 (112.7)
same,Average body weight change in % per mouse at nadir,[4],−6.3%
same,Biological interpretation,[4],highly active
same,Drug death,[4],0/7
same,Regressions Complete,[4],0/7
same,Regressions Partial,[4],7/7
same,Tumor free survivors at day 120,[4],0/7
same,day of nadir,[4],16 days
same,Biological interpretation,[5],Highly Active
same,ΔT/ΔC in % (day 22),[5],<0%
same,PR,9 mg/kg per injection IV days 15; 19,100%
same,Tumor volume changes from baseline: Median (nMad),"9 mg/kg, day 19",25
same,Tumor volume changes from baseline: Median (nMad),"9 mg/kg, day 22",−137
same,Tumor volume changes from baseline: Median (nMad),"9 mg/kg, day 25",−227
same,Tumor volume changes from baseline: Median (nMad),"9 mg/kg, day 28",−227
same,Tumor volume changes from baseline: Median (nMad),9 mg/kg; day 19,25 (37.1)
same,Tumor volume changes from baseline: Median (nMad),9 mg/kg; day 22,−137 (60.8)
same,Tumor volume changes from baseline: Median (nMad),9 mg/kg; day 25,−227 (100.8)
same,Tumor volume changes from baseline: Median (nMad),9 mg/kg; day 28,−227 (100.8)
same,Tumor volume changes from baseline: Median (nMad),9 mg/kg; day 32,−231 (78.6)
same,Tumor volume changes from baseline: Median (nMad),9 mg/kg; day 35,−231 (78.6)
same,Average body weight change in % per mouse at nadir,[6],−7.1%
same,Biological interpretation,[6],highly active
same,Drug death,[6],0/7
same,Regressions Complete,[6],6/7
same,Regressions Partial,[6],7/7
same,Tumor free survivors at day 120,[6],3/7
same,day of nadir,[6],20 days
same,Biological interpretation,[7],Highly Active
same,ΔT/ΔC in % (day 22),[7],<0%
same,Tumor volume changes from baseline: Median (nMad),"14.5 mg/kg, day 19",−108
same,Tumor volume changes from baseline: Median (nMad),"14.5 mg/kg, day 22",−203
same,Tumor volume changes from baseline: Median (nMad),"14.5 mg/kg, day 25",−221
same,Tumor volume changes from baseline: Median (nMad),"14.5 mg/kg, day 28",−221
same,Tumor volume changes from baseline: Median (nMad),14.5 mg/kg; day 19,−108 (91.9)
same,Tumor volume changes from baseline: Median (nMad),14.5 mg/kg; day 22,−203 (87.5)
same,Tumor volume changes from baseline: Median (nMad),14.5 mg/kg; day 25,−221 (81.5)
same,Tumor volume changes from baseline: Median (nMad),14.5 mg/kg; day 28,−221 (81.5)
same,Tumor volume changes from baseline: Median (nMad),14.5 mg/kg; day 32,−221 (87.5)
same,Tumor volume changes from baseline: Median (nMad),14.5 mg/kg; day 35,−221 (87.5)
same,Tumor volume changes from baseline: Median (nMad),14.5 mg/kg; day 39,−221 (108.2)
same,Tumor volume changes from baseline: Median (nMad),14.5 mg/kg; day 41,−221 (140.8)
same,Tumor volume changes from baseline: Median (nMad),14.5 mg/kg; day 43,−221 (140.8)
same,Tumor volume changes from baseline: Median (nMad),14.5 mg/kg; day 45,−144 (222.4)
same,antitumor activity compared with docetaxel,conclusion of example 3,more also active than docetaxel
